In patent EP4685142A1, “TRIAZINE COMPOUND AND USE THEREOF” (Chengdu Zenitar Biomedical Technology Co., Ltd., priority 2023, dated 2024):
Where two headings read alike, the source gives them in different places.

Tests used:
LPS-induced mice = assay: LPS-induced mouse model, survival; format: in vivo, Balb/c mice; conditions: for 72h Survival rate: 1 h before 10 mg/kg LPS i.p.
[1] = biological target: T1, hERG potassium ion channel (Homo sapiens, UniProt Q12809); assay: Inhibition of hERG potassium ion channel (CHO cells stably expressing hERG, Qpatch)
Description: (§1) Inhibition experiment of compounds on hERG potassium ion channel
(§2) Cell culture and treatment: CHO cells stably expressing hERG were cultured in cell culture flasks and incubated in a 5% CO2 incubator at 37°C. When a cell density reached 60%-80%, the cell culture medium was aspirated, washed once with PBS, and then digested with Detachin. After digestion, the grown cells were neutralized in the cell culture medium, and then centrifuged, the supernatant was aspirated, the cell culture medium was added again to resuspend the grown cells, and the cell density was adjusted to 2-5×10^6 cells/mL for later use.
(§3) Compound preparation: the compound stock solution was diluted in 100% DMSO, that is, 10 µL compound stock solution was serially diluted in 20 µL DMSO by 3 folds to obtain six concentrations. Six concentrations of the compound (4 µL for each concentration) were diluted in 396 µL extracellular fluid by 100 folds to obtain six intermediate concentrations. Six intermediate concentrations of the compound (80 µL for each concentration) were diluted in 320 µL extracellular fluid by 5 folds to obtain final concentrations to be tested. […] DMSO in a final test concentration was not more than 0.2%, and DMSO at this concentration had no effect on the hERG potassium channel. The entire dilution process for compound preparation was performed using Bravo instrument.
(§4) Electrophysiological recording process: the processes of single-celled high-impedance sealing and whole-cell mode formation were all automatically completed by Qpatch instrument, under the whole-cell recording mode, the cells were clamped at -80 mV, before 5-second + 40 mV depolarization stimulus, the cells were given 50-millisecond - 50 mV pre-voltage, followed by repolarization to -50 mV for 5 seconds, and then returning to -80 mV. The voltage stimulus was given every 15 seconds, after 2 minutes of recording, extracellular fluid was recorded for 5 min, and then a drug was administrated, started from a lowest test concentration, each test concentration of the compound was given for 2.5 minutes, after all concentrations were given consecutively, a positive control compound Cisapride (3 µM) was given. At least 3 cells were tested for each concentration (n≥3).
(§5) Data processing: data analysis and processing were performed using GraphPad Prism 5.0 and Excel software. IC50 values of the compounds were calculated by fitting with the following equation using GraphPad Prism 5 software: Y = Bottom + (Top−Bottom)/(1+10^(∧)((LogIC50−X)*HillSlope)); [formula] where X is the Log value of the test sample concentration, Y is an inhibition percentage at a corresponding concentration, and Bottom and Top are the minimum and maximum inhibition percentages, respectively.

[2] = In vivo brain-to-plasma ratio in mice; conditions: for Brain / Plasma: male mice, oral 10 mg/kg; for Kp at 1 h / Kp at 6 h / concentration at 1 h / concentration at 6 h: mouse, po, 10 mg/kg; for concentration at 1 h / concentration at 6 h: plasma
Description: Evaluation of in vivo brain-to-plasma ratio of compound
Experimental purpose: to obtain the brain-to-plasma ratio of the compound
Experimental protocol: the brain-to-plasma ratio of the compound was investigated by monitoring the content of the compound in mouse brain and plasma.
Experimental procedure: the compound was weighed, followed by adding a small amount of DMSO and adding a sodium chloride solution for injection, to prepare a 10 mg · mL^-1 compound solution for administration. Male mice were orally administered at 10 mg · kg^-1, and whole plasma and whole brain tissue were sampled at 1 h and 6 h after administration (n=3). […] A centrifuge tube was weighed as M1, the centrifuge tube containing the whole brain tissue was weighed as M2, the centrifuge tube containing water for homogenization was weighed as M3, and the centrifuge tube after the removal of 30 µL homogenate was weighed as M4.
Standard curve range: 10-10,000 ng·mL^-1. Content of drug in brain = measured value × 0.03 × (M3−M1)/[(M2−M1)×(M3−M4)].

[3] = system: IL-1β in human PBMC cells; assay: Inhibitory activity on IL-1β in human PBMC cells (LPS + Nigericin, ELISA); format: cell-based
Description: 2. Determination of inhibitory activity of compounds on IL-1β in human PBMC cells
Human peripheral blood mononuclear cells (PBMCs) were taken and cultured overnight in RPMI 1640 culture medium containing 10% FBS and antibiotics before stimulation. On the second day, the culture medium was replaced with a serum-reduced culture medium, the grown cells were stimulated for 3 h with LPS at a working concentration of 1 µg/mL, stimulated for 40 min with a drug, and then stimulated for 40 min with Nigericin at a concentration of 10 µM, the cell supernatant was harvested, and the yield of IL-1β was detected by ELISA.
The experimental results are shown in Table 3: Table 3 Inhibitory effect of compounds on IL-1β in PBMC cells

[4] = biological target: T1, hERG potassium ion channel
Description: as §1, §2, §3, §4, §5

NLRP3 inflammasome = biological target: T2, NLRP3 inflammasome (Homo sapiens, UniProt Q96P20); assay: Inhibitory activity of NLRP3 inflammasome in human monocytes (THP-1 cells, LPS + Nigericin, IL-1β ELISA); format: cell-based
T2 construct: host or cells: THP-1 cells
Method in brief: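 THP-1 cells differentiated overnight with 10 µM PMA at 37°C and 5% CO2, then primed 3 h with 1 µg/mL LPS in Opti-MEM. Compound applied for 40 min, followed by 40 min with 10 µM nigericin. IL-1β in supernatant measured by ELISA.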

[5] = Pharmacokinetic evaluation in Balb/c mice; format: in vivo
Source text: 4. Pharmacokinetic evaluation of compounds in Balb/c mice
Experimental purpose: to understand pharmacokinetic properties of the compounds.
Experimental basis: Technical Guidelines for Nonclinical Pharmacokinetic Studies of Chemical Drugs, 2014.
Experimental protocol: the pharmacokinetic properties of the compounds were investigated via intravenous administration and intragastric administration in Balb/c mice.
The blood drug concentration was quantitatively analyzed by LC-MS/MS, and pharmacokinetic parameters were calculated, such as peak concentration (Cmax), area under the concentration-time curve (AUC(0-t)), half-life (T1/2), clearance (CL), volume of distribution at steady state (Vdss), and bioavailability (F).
The results of pharmacokinetic evaluation are shown in Table 5 below: Table 5 Pharmacokinetic test results of compounds in Balb/c mice

[6] = In vivo distribution of cerebrospinal fluid and plasma; conditions: for concentration at 0.25 h / concentration at 2 h: male, mouse, iv, 5 mg/kg; for Cerebrospinal fluid / Plasma: intravenous 5 mg/kg, n=1
Description: Evaluation of in vivo distribution of cerebrospinal fluid and plasma after compound administration
Experimental procedure: the compound was weighed, followed by adding a small amount of DMSO and then adding a sodium chloride solution for injection, to prepare a 5 mg·mL^-1 compound solution for administration. […] Standard curve range: 1-1000 ng·mL^-1.

human NLRP3 protein = human NLRP3 protein (Homo sapiens, UniProt Q96P20); assay: Affinity for human NLRP3 protein (Biacore T200, CM5 chip); format: binding; conditions: protein immobilized on CM5 chip, 25°C
[7] = 50 mg/kg, First cage (6 mice for Compound 3, 5 mice for Compound 4)
[8] = 50 mg/kg, Second cage (6 mice for Compound 3, 5 mice for Compound 4)
[9] = THP-1 cells, PMA, LPS 1 µg/mL 3 h, drug 40 min, Nigericin 10 µM 40 min, IL-1β ELISA, read-out: IC50
[10] = male, Balb/c, mouse, in vivo, po, 5 mg/kg

T2 sequence (Q96P20 whole entry): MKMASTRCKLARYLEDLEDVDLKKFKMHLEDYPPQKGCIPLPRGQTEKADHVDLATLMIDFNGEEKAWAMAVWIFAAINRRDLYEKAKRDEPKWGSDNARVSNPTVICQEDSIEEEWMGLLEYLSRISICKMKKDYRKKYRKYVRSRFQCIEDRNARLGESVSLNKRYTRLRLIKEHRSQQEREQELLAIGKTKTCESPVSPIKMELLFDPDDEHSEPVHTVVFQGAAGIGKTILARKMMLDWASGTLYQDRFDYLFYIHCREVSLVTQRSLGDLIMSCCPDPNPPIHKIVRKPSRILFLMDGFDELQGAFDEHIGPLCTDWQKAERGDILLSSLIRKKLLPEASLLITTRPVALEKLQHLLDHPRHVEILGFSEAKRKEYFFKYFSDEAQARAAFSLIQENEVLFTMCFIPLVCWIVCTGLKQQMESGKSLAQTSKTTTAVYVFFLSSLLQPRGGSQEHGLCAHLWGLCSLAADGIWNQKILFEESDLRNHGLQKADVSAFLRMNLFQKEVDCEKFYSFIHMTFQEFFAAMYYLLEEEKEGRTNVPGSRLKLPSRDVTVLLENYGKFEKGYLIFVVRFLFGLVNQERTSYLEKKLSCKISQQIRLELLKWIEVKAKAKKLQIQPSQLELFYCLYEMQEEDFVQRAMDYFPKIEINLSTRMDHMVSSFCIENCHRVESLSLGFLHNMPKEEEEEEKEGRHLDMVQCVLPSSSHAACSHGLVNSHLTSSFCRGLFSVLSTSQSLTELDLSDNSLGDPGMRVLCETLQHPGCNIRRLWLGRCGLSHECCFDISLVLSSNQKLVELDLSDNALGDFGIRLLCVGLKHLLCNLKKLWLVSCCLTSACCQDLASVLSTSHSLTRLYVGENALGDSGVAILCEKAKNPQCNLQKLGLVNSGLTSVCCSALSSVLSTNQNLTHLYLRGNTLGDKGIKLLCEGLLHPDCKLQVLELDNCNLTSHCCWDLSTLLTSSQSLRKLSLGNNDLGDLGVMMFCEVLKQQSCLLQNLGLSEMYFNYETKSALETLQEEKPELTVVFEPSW
T1 sequence (Q12809 whole entry): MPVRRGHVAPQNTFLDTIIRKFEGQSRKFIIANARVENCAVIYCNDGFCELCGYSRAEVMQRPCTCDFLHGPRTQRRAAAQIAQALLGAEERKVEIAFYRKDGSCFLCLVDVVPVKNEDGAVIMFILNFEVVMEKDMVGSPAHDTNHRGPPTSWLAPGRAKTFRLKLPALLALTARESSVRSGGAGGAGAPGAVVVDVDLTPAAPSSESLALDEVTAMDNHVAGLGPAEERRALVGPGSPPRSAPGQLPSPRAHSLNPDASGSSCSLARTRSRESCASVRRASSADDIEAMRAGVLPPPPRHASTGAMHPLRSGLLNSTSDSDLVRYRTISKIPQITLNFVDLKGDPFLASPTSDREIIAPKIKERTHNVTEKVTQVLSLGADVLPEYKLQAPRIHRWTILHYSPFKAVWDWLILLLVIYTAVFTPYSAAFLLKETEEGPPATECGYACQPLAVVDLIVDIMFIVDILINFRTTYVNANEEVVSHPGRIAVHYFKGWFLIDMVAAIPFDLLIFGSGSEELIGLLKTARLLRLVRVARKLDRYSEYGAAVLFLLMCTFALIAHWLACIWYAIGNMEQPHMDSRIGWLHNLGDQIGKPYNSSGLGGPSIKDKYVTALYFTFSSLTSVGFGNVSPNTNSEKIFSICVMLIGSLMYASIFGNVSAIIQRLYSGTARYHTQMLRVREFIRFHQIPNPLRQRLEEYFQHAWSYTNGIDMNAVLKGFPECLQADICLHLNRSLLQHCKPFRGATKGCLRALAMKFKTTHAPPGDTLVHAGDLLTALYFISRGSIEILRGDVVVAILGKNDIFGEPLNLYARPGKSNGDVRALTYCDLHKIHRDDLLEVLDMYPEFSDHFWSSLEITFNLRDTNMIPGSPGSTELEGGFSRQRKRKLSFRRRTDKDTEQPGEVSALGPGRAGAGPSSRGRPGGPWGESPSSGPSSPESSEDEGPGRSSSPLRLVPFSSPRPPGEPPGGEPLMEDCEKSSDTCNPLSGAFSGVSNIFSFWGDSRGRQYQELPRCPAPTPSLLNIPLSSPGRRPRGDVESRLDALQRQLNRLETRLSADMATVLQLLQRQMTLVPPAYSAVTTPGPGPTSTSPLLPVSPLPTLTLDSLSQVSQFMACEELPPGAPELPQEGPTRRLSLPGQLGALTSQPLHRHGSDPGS
Chain of human NLRP3 protein (Q96P20 whole entry): as the sequence (Q96P20 whole entry) above

Structure (SMILES): CN1CCC[C@@H](Nc2nnc(-c3ccc4sccc4c3O)n(C)c2=O)C1 [Compound 4, (R)-3-(4-hydroxybenzo[b]thiophen-5-yl)-4-methyl-6-((1-methylpiperidin-3-yl)amino)-1,2,4-tr iazin-5(4H)-ketone]
- 72h Survival rate (LPS-induced mice; 25 mg/kg oral): 80%
- survival status of mice (mice alive) 12h (LPS-induced mice; 25 mg/kg, First cage (5 mice)): 5
- survival status of mice (mice alive) 24h (LPS-induced mice; 25 mg/kg, First cage (5 mice)): 5
- survival status of mice (mice alive) 36h (LPS-induced mice; 25 mg/kg, First cage (5 mice)): 5
- survival status of mice (mice alive) 48h (LPS-induced mice; 25 mg/kg, First cage (5 mice)): 5
- survival status of mice (mice alive) 72h (LPS-induced mice; 25 mg/kg, First cage (5 mice)): 5
- survival status of mice (mice alive) 12h (LPS-induced mice; 25 mg/kg, Second cage (5 mice)): 5
- survival status of mice (mice alive) 24h (LPS-induced mice; 25 mg/kg, Second cage (5 mice)): 5
- survival status of mice (mice alive) 36h (LPS-induced mice; 25 mg/kg, Second cage (5 mice)): 4
- survival status of mice (mice alive) 48h (LPS-induced mice; 25 mg/kg, Second cage (5 mice)): 4
- survival status of mice (mice alive) 72h (LPS-induced mice; 25 mg/kg, Second cage (5 mice)): 3
- 72h Survival rate (LPS-induced mice; 50 mg/kg oral): 100%
- survival status of mice (mice alive) 12h (LPS-induced mice; [7]): 5
- survival status of mice (mice alive) 24h (LPS-induced mice; [7]): 5
- survival status of mice (mice alive) 36h (LPS-induced mice; [7]): 5
- survival status of mice (mice alive) 48h (LPS-induced mice; [7]): 5
- survival status of mice (mice alive) 72h (LPS-induced mice; [7]): 5
- survival status of mice (mice alive) 12h (LPS-induced mice; [8]): 5
- survival status of mice (mice alive) 24h (LPS-induced mice; [8]): 5
- survival status of mice (mice alive) 36h (LPS-induced mice; [8]): 5
- survival status of mice (mice alive) 48h (LPS-induced mice; [8]): 5
- survival status of mice (mice alive) 72h (LPS-induced mice; [8]): 5
- 20 uM Inhibition ratio [1]: 14.87%
- Brain ([2]; 1 h): 1780 ng/g
- Brain ([2]; 6 h): 335 ng/g
- Kp at 1 h ([2]; male, brain/plasma): 0.53
- Kp at 6 h ([2]; male, brain/plasma): 0.25
- concentration at 1 h ([2]; male): 3340 ng/mL
- concentration at 6 h ([2]; male): 1370 ng/mL
- IC50 ([3]; human PBMC, LPS 1 µg/mL 3 h, drug 40 min, Nigericin 10 µM 40 min, IL-1β ELISA, read-out: IC50): 1.42 nM
- inhibitory effects on the hERG potassium ion channel (conclusion in words) ([4]; human): Conclusion: compounds 3, 4, 5, 9, 16, 17, 24, 30, 40, 41, 42, 43, 54 and others have weak inhibitory effects on the hERG potassium ion channel, having weaker inhibitory effect than the reference compound Ref-1.
- IC50 (NLRP3 inflammasome; [9]): 4.21 nM
- AUC(0-t) [5, 10]: 16900 ng·h/mL
- Cmax [5, 10]: 4610 ng/mL
- half-life [5, 10]: 3 h

Structure (SMILES): CN1C[C@H](F)C[C@@H](Nc2nnc(-c3ccc4sccc4c3O)n(C)c2=O)C1 [Compound 40]
- concentration at 0.25 h ([6]; cerebrospinal fluid): 191 ng/g
- concentration at 2 h ([6]; cerebrospinal fluid): 0.51 ng/g
- concentration at 0.25 h ([6]; plasma): 5030 ng/mL
- concentration at 2 h ([6]; plasma): 826 ng/mL
- Kd (human NLRP3 protein): 62.1 nM
- 72h Survival rate (LPS-induced mice; 25 mg/kg oral): 90%
- survival status of mice (mice alive) 12h (LPS-induced mice; 25 mg/kg, First cage (5 mice)): 5
- survival status of mice (mice alive) 24h (LPS-induced mice; 25 mg/kg, First cage (5 mice)): 5
- survival status of mice (mice alive) 36h (LPS-induced mice; 25 mg/kg, First cage (5 mice)): 5
- survival status of mice (mice alive) 48h (LPS-induced mice; 25 mg/kg, First cage (5 mice)): 5
- survival status of mice (mice alive) 72h (LPS-induced mice; 25 mg/kg, First cage (5 mice)): 5
- survival status of mice (mice alive) 12h (LPS-induced mice; 25 mg/kg, Second cage (5 mice)): 5
- survival status of mice (mice alive) 24h (LPS-induced mice; 25 mg/kg, Second cage (5 mice)): 5
- survival status of mice (mice alive) 36h (LPS-induced mice; 25 mg/kg, Second cage (5 mice)): 5
- survival status of mice (mice alive) 48h (LPS-induced mice; 25 mg/kg, Second cage (5 mice)): 4
- survival status of mice (mice alive) 72h (LPS-induced mice; 25 mg/kg, Second cage (5 mice)): 4
- 20 uM Inhibition ratio [1]: 3.48%
- Brain ([2]; 1 h): 1350 ng/g
- Brain ([2]; 6 h): 199 ng/g
- Kp at 1 h ([2]; male, brain/plasma): 0.19
- Kp at 6 h ([2]; male, brain/plasma): 0.14
- concentration at 1 h ([2]; male): 7240 ng/mL
- concentration at 6 h ([2]; male): 1460 ng/mL
- inhibitory effects on the hERG potassium ion channel (conclusion in words) ([4]; human): Conclusion: compounds 3, 4, 5, 9, 16, 17, 24, 30, 40, 41, 42, 43, 54 and others have weak inhibitory effects on the hERG potassium ion channel, having weaker inhibitory effect than the reference compound Ref-1.
- IC50 (NLRP3 inflammasome; [9]): 2.97 nM
- AUC(0-t) [5, 10]: 40400 ng·h/mL
- Cmax [5, 10]: 15000 ng/mL
- half-life [5, 10]: 2.86 h

Structure (SMILES): CCN1CCC[C@@H](Nc2nnc(-c3ccc4sccc4c3O)n(C)c2=O)C1 [Compound 3, (R)-6-((1-ethylpiperidin-3-yl)amino)-3-(4-hydroxybenzo[b]thiophen-5-yl)-4-methyl-1,2,4-tria zin-5(4H)-ketone]
- Cerebrospinal fluid ([6]; 0.25h): 79 ng/g
- Plasma ([6]; 0.25h): 781 ng/mL
- Cerebrospinal fluid ([6]; 2h): 15 ng/g
- Plasma ([6]; 2h): 185 ng/mL
- 72h Survival rate (LPS-induced mice; 25 mg/kg oral): 90%
- survival status of mice (mice alive) 12h (LPS-induced mice; 25 mg/kg, First cage (5 mice)): 5
- survival status of mice (mice alive) 24h (LPS-induced mice; 25 mg/kg, First cage (5 mice)): 5
- survival status of mice (mice alive) 36h (LPS-induced mice; 25 mg/kg, First cage (5 mice)): 5
- survival status of mice (mice alive) 48h (LPS-induced mice; 25 mg/kg, First cage (5 mice)): 4
- survival status of mice (mice alive) 72h (LPS-induced mice; 25 mg/kg, First cage (5 mice)): 4
- survival status of mice (mice alive) 12h (LPS-induced mice; 25 mg/kg, Second cage (5 mice)): 5
- survival status of mice (mice alive) 24h (LPS-induced mice; 25 mg/kg, Second cage (5 mice)): 5
- survival status of mice (mice alive) 36h (LPS-induced mice; 25 mg/kg, Second cage (5 mice)): 5
- survival status of mice (mice alive) 48h (LPS-induced mice; 25 mg/kg, Second cage (5 mice)): 5
- survival status of mice (mice alive) 72h (LPS-induced mice; 25 mg/kg, Second cage (5 mice)): 5
- 72h Survival rate (LPS-induced mice; 50 mg/kg oral): 92%
- survival status of mice (mice alive) 12h (LPS-induced mice; [7]): 6
- survival status of mice (mice alive) 24h (LPS-induced mice; [7]): 6
- survival status of mice (mice alive) 36h (LPS-induced mice; [7]): 6
- survival status of mice (mice alive) 48h (LPS-induced mice; [7]): 6
- survival status of mice (mice alive) 72h (LPS-induced mice; [7]): 6
- survival status of mice (mice alive) 12h (LPS-induced mice; [8]): 6
- survival status of mice (mice alive) 24h (LPS-induced mice; [8]): 6
- survival status of mice (mice alive) 36h (LPS-induced mice; [8]): 5
- survival status of mice (mice alive) 48h (LPS-induced mice; [8]): 5
- survival status of mice (mice alive) 72h (LPS-induced mice; [8]): 5
- 20 uM Inhibition ratio [1]: 38.23%
- Brain ([2]; 1 h): 761 ng/g
- Plasma ([2]; 1 h): 2082 ng/mL
- Brain ([2]; 6 h): 104 ng/g
- Plasma ([2]; 6 h): 312 ng/mL
- Kp at 1 h ([2]; brain): 0.36
- Kp at 6 h ([2]; brain): 0.33
- IC50 ([3]; Homo sapiens, PBMC): 1.23 nM
- inhibitory effects on the hERG potassium ion channel (conclusion in words) [4]: Conclusion: compounds 3, 4, 5, 9, 16, 17, 24, 30, 40, 41, 42, 43, 54 and others have weak inhibitory effects on the hERG potassium ion channel, having weaker inhibitory effect than the reference compound Ref-1.
- IC50 (NLRP3 inflammasome): 2.11 nM
- F ([5]; 5 mg/kg PO vs 5 mg/kg IV, Balb/c mice): 81.05%
- clearance ([5]; mouse, in vivo, 5 mg/kg, IV, Balb/c mice): 9.67 mL/min/kg
- AUC(0-t) ([5]; mouse, in vivo, 5 mg/kg, IV, Balb/c mice, read-out: AUC(0-t)): 8300 ng·h/mL
- Cmax ([5]; mouse, in vivo, 5 mg/kg, IV, Balb/c mice, read-out: Cmax): 1990 ng/mL
- half-life ([5]; mouse, in vivo, 5 mg/kg, IV, Balb/c mice, read-out: T1/2 (converted)): 5.4 h
- Vd ([5]; mouse, in vivo, 5 mg/kg, IV, Balb/c mice, read-out: Vdss): 4.51 L/kg
- AUC(0-t) ([5]; mouse, in vivo, 5 mg/kg, PO, Balb/c mice, read-out: AUC(0-t)): 6730 ng·h/mL
- Cmax ([5]; mouse, in vivo, 5 mg/kg, PO, Balb/c mice, read-out: Cmax): 1010 ng/mL
- half-life ([5]; mouse, in vivo, 5 mg/kg, PO, Balb/c mice, read-out: T1/2 (converted)): 4.9 h
